“And” between values parts separate entries of the source, which are not always exact repeats. Equal entries are not always repeated.
Key:
APP = APP Western blot in SHSY-5Y cell culture; format: cell-based, human; details: for APP, % control levels / APP, percent control levels: 16 h; for APP, % control levels: FIG. 5 study
Protocol: (§1) Cell Culture. The human neuroblastoma cell line, SHSY-5Y, was obtained from the American Type Culture Collection, culture medium was from Mediatech, Inc. (Herndon, Va.) and FCS from HyClone (Logan, Utah). Drug Treatment. […] Cells were allowed to grow in complete media (10% FCS, 2 mM glutamine in DMEM) for 2 days to reach 70% confluence. Thereafter, spent media was removed and replaced with fresh media (2 mL DMEM) containing 0 to 100 μM of freshly prepared compounds (clioquinol, razoxane and dexrazoxane. Cells were incubated at 37° C., 5% CO2 for 16 h. APP Western Blot and cell viability. Fifteen μg of protein from each sample was mixed with Laemmli buffer, boiled for 5 min at 100° C., and loaded onto a 10% SDS PAGE gel (Novex, San Diego, Calif.). […] The blots were incubated in secondary antibody, anti-mouse IgG—conjugated to horseradish peroxidase, for 30 min. Thereafter, samples were detected by chemiluminescence. Cell viability was assessed by a sensitive MTT assay. Values were expressed as the mean of between four and six independent assays and were statistically compared to control values. (See FIGS. 3-5).

[1] = razoxane compared to dexrazoxane
Text: The pharmacokinetics of razoxane compared to those of dexrazoxane.

[2] = cited from earlier work
[3] = test system: SHSY-5Y human neuronal cells; assay: Cellular toxicity / cell viability by MTT assay; format: cell-based
Protocol: as §1

Aβ1-40 peptide = assay: Brain Aβ1-40 by sandwich ELISA in double transgenic mice after 21 day razoxane treatment; format: in vivo; details: for Average Conc, Aβ1-40: group average; for Conc, Aβ1-40: individual mouse cerebral cortex sample
Protocol: (§2) Double transgenic male mice (APP Swedish mutation+PS1 mutation) express human amyloid precursor protein (APP) and amyloid-β peptide (Aβ) within their brain and form amyloid depositions from 4 months onward. Razoxane (ICRF 159) was administered by intraperitoneal (i.p.) injection once daily for 21 consecutive days to a group of such mice, 5 to 6 months of age and approximately 22 to 28 g in weight. […] Within three hours of the final razoxane/vehicle administration, animals were killed, their brain exposed and a 50-80 mg sample of cerebral cortex collected and frozen at […].

[4] = in vivo; cited from earlier work
Aβ1-42 peptide = assay: Brain Aβ1-42 by sandwich ELISA in double transgenic mice after 21 day razoxane treatment; format: in vivo; details: for Average Conc, Aβ1-42: group average; for Conc, Aβ1-42: individual mouse cerebral cortex sample
Protocol: as §2

[5] = cited from earlier work; remark: listed apart in the source
[6] = 30 mg/kg once daily x 21 days, male 5 month old transgenic mice
[7] = razoxane 20 mg/kg i.p. once daily x 21 days
[8] = razoxane 30 mg/kg i.p. once daily x 21 days

With `CC(CN1CC(=O)NC(=O)C1)N1CC(=O)NC(=O)C1` (single isomer, unassigned; (+)) [Dexrazoxane, (+)-1,2-Bis(3,5-dioxopiperazin-1-yl)propane] the “APP, % control levels” value (APP; 0.5 μM) was 87%, the “APP, % control levels” value (APP; 10 μM) was 59% and the “Elimination from the body” value [1] was “eliminated more rapidly”. For the same compound, the “Aqueous solubility (in words)” value [2] was “more soluble”.

In the case of `Oc1c(I)cc(Cl)c2cccnc12` [Clioquinol], the “APP, percent control levels” value (APP; 0.5 μM, FIG. 4) is reported as 108%, the “APP, percent control levels” value (APP; 2 μM, FIG. 4) is reported as 116% and the “APP, percent control levels” value (APP; 10 μM, FIG. 4) is reported as 82%. For the same compound, the “Effect at lowering APP (in words)” value (APP; FIG. 4) was “without affect” and the Cell viability ([3]; 10 μM, associated with the 18% APP decline, FIG. 4) was “loss of cell viability”.

With `CC(CN1CC(=O)NC(=O)C1)N1CC(=O)NC(=O)C1` (racemic) [Razoxane, 1,2-bis(3,5-dioxopiperazin-1-yl)-propane] the “APP, percent control levels” value (APP; 0.5 μM, FIG. 4) was 81%, the “APP, % control levels” value (APP; 0.5 μM) was 75% and the “APP, percent control levels” value (APP; 2 μM, FIG. 4) was 60%. The “APP, percent control levels” value (APP; 10 μM, FIG. 4) was 53%, the “APP, % control levels” value (APP; 10 μM) was 42% and the “Elimination from the body” value [1] was “slower elimination”. For the same compound, the “Reduction of brain Aβ1-40 compared to the control group” value (Aβ1-40 peptide; [6]) was 46%, the “Average Conc, Aβ1-40” value (Aβ1-40 peptide; [7]) was 375 pM and the “Conc, Aβ1-40” value (Aβ1-40 peptide; [7]) was 316.435 pM and 386.757 pM and 378.84 pM and 406.557 pM and 290.284 pM and 468.154 pM. The “Average Conc, Aβ1-40” value (Aβ1-40 peptide; [8]) was 213 pM, the “Conc, Aβ1-40” value (Aβ1-40 peptide; [8]) was 162.992 pM and 310.189 pM and 295.464 pM and 129.452 pM and 134.783 pM and 244.537 pM and the “Crossing of the blood/brain barrier” value [4] was “cross the blood/brain barrier”. The “Reduction of brain Aβ1-42 compared to the control group” value (Aβ1-42 peptide; [6]) was 29%, the “Average Conc, Aβ1-42” value (Aβ1-42 peptide; [7]) was 564 pM and the “Conc, Aβ1-42” value (Aβ1-42 peptide; [7]) was 489 pM and 545 pM and 533 pM and 562 pM and 553 pM and 701 pM. The “Average Conc, Aβ1-42” value (Aβ1-42 peptide; [8]) was 326 pM, the “Conc, Aβ1-42” value (Aβ1-42 peptide; [8]) was 365 pM and 504 pM and 471 pM and 216 pM and 27.2 pM and 370 pM and the “Aqueous solubility (in words)” value [2] was “relatively low aqueous solubility”. For the same compound, the “Cellular toxicity against SHSY-5Y cells” value ([3]; concentrations up to 100 μM, 16 h, FIG. 3) was “well tolerated and without toxicity”, the Plasma half-life ([5]; humans) was “about 3.5 hours” and the Oral bioavailability ([5]; in vivo, po) was “orally bioavailable”. The Tolerance in humans ([5]; oral dose of 125 mg, twice a day for five days each week for up to two years) was “relatively well tolerated”.
